Converted amounts (≈) assume the structure as drawn. Where two headings read alike, the source gives them in different places.
What was measured:
prothrombin time = test: Prothrombin time; format: in vivo, human; settings: for EC50: Homo sapiens; for comparable dose of rivaroxaban in PT: Monte-Carlo simulation
factor Xa [1] = molecular target: factor Xa (Homo sapiens, UniProt P00742); test: Antifactor Xa; format: in vivo
[2] = tested on: activated partial thromboplastin time; test: Activated partial thromboplastin time; format: in vivo, human; settings: for EC50: Homo sapiens
coagulation factor X = coagulation factor X (Homo sapiens, UniProt P00742); test: Coagulation factor X; format: in vivo
[3] = for CL renal: male, human, in vivo, GCC-4401C, plasma and urine PK modeling analysis from the SAD study
factor Xa [4] = molecular target: factor Xa (Bos taurus, UniProt P00743); test: LMWH assay; format: in vivo, human; settings: GCC4401C, SAD study
factor X = factor X (Homo sapiens, UniProt P00742); test: Factor X chromogenic activity assay; format: in vivo; settings: for comparable dose of rivaroxaban in FXCAA: Monte-Carlo simulation
antithrombin III = test: Antithrombin III; format: in vivo, human; settings: AT III activity; GCC4401C, SAD study; Linear model
[5] = oral, cited from earlier work
[6] = PT (INR), GCC4401C, SAD and S&MAD studies, Sigmoid Emax model
[7] = Prothrombin time (seconds), GCC4401C, Sigmoid Emax model
[8] = Antifactor Xa activity, GCC4401C, S&MAD study, Sigmoid Emax model
[9] = Antifactor Xa activity, GCC4401C, S&MAD study, variance (CV %)
[10] = Coagulation factor X, GCC4401C, SAD and S&MAD studies, variance (CV %)
[11] = Coagulation factor X, GCC4401C, variance (CV %)
[12] = GCC4401C oral, fasted, SAD and S&MAD studies, final model
[13] = GCC4401C oral, fasted, SAD and S&MAD studies, variance (CV %)
[14] = GCC-4401C oral, fasted, base model
[15] = FXCAA, GCC4401C, S&MAD study, variance (CV %)
[16] = PT (INR), Rivaroxaban, S&MAD study, Simple Emax model
[17] = Activated PT (seconds), Rivaroxaban, S&MAD, Sigmoid Emax model
[18] = Coagulation factor X, Rivaroxaban, S&MAD study, Sigmoid Emax model
[19] = Coagulation factor X, Rivaroxaban, S&MAD study, variance (CV %)
[20] = rivaroxaban 20 mg, fed, S&MAD study
[21] = rivaroxaban 20 mg, fed, S&MAD study, variance (CV %)
[22] = FXCAA, Rivaroxaban, S&MAD study, variance (CV %)

factor X, sequence (P00742 235-488 limits assumed): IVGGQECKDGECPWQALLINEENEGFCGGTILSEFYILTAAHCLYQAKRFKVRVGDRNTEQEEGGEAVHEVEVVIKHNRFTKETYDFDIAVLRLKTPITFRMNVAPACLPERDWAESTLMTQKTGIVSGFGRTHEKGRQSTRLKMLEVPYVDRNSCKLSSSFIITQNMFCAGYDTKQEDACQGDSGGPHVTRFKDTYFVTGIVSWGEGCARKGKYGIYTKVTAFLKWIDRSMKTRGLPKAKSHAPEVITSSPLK
factor X, sequence (P00742 41-179 limits assumed): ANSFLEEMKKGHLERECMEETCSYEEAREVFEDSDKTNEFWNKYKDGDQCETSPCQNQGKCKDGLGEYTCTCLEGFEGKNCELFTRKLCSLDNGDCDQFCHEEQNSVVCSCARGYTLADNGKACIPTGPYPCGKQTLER
coagulation factor X, sequence (P00742 235-488 limits assumed): as the sequence (P00742 235-488 limits assumed) above
coagulation factor X, sequence (P00742 41-179 limits assumed): as the sequence (P00742 41-179 limits assumed) above
factor Xa (Homo sapiens, UniProt P00742), sequence (P00742 235-488 limits assumed): as the sequence (P00742 235-488 limits assumed) above
factor Xa (Homo sapiens, UniProt P00742), sequence (P00742 41-179 limits assumed): as the sequence (P00742 41-179 limits assumed) above

## CS(=O)(=O)O.O=C(NC[C@H]1CN(c2ccc(N3CCNC=N3)cc2)C(=O)O1)c1ccc(Cl)s1 [GCC‐4401C, (S)−5‐chloro‐N‐((3‐(4‐(5,6‐dihydro‐1,2,4‐triazin‐1(4H)‐yl)phenyl)−2‐oxooxazolidin‐5‐yl)methyl)thiophene‐2‐carboxamide methanesulfonate]
Prothrombin time; read-out: EC50, SAD, PT (INR), GCC4401C, SAD study, Sigmoid Emax model
  EC50: 0.426 µg/mL
Prothrombin time; read-out: EC50, SAD, Prothrombin time (seconds), GCC4401C, SAD study, Sigmoid Emax model
  EC50: 0.563 µg/mL
Prothrombin time; read-out: EC50, SAD/MAD, PT (INR), GCC4401C, SAD/MAD study, Sigmoid Emax model
  EC50: 1.35 µg/mL
Prothrombin time; read-out: EC50, SAD/MAD, Prothrombin time (seconds), GCC4401C, SAD/MAD study, Sigmoid Emax model
  EC50: 1.45 µg/mL
Prothrombin time; GCC-4401C 10 mg
  comparable dose of rivaroxaban in PT: 30 to 40 mg
Prothrombin time; GCC-4401C 20 mg
  comparable dose of rivaroxaban in PT: ~40 mg
Prothrombin time; [6]
  Emax: 1.32 INR
  γ (shape parameter): 1.23
Prothrombin time; [7]
  Emax: 15.2 s
  γ (shape parameter): 1.16
Factor Xa [1]
  EC50: 1350 nM
Factor Xa [1]; [8]
  Emax: 3.24 IU/mL
  γ (shape parameter): 1.25
Factor Xa [1]; [9]
  IIV + IOVEC50 (%): 0.005 (7.2)
  IIVEmax (CV, %): 0.04 (20.8)
  IIVγ (CV, %): 0.02 (13.4)
Factor Xa [1]; Monte-Carlo simulation, GCC-4401C 10 mg
  comparable dose of rivaroxaban in AFX assay: ~20 mg
Factor Xa [1]; Monte-Carlo simulation, GCC-4401C 20 mg
  comparable dose of rivaroxaban in AFX: ~40 mg
[2]; Activated PT (seconds), GCC4401C, SAD study, Sigmoid Emax model
  Emax, SAD: 16.9 s
[2]; Activated PT (seconds), GCC4401C, SAD/MAD study, Sigmoid Emax model
  Emax, SAD/MAD: 20.4 s
[2]; Activated PT (seconds), GCC4401C, Sigmoid Emax model
  γ (shape parameter): 1.37
[2]
  EC50: 0.573 µg/mL
Coagulation factor X
  EC50: 5580 nM
Coagulation factor X; Coagulation factor X, GCC4401C, SAD and S&MAD studies, Sigmoid Emax model
  Emax: 81.2%
Coagulation factor X; [10]
  IIVEC50 (%): 0.98 (129.4)
  IIVEmax (CV, %): 0.10 (33.1)
Coagulation factor X; Coagulation factor X, GCC4401C, SAD study, Sigmoid Emax model
  γSAD (shape parameter): 1.07
Coagulation factor X; Coagulation factor X, GCC4401C, SAD/MAD study, Sigmoid Emax model
  γSAD/MAD (shape parameter): 0.60
Coagulation factor X; [11]
  IIVγ (CV, %): 0.24 (51.8)
  IOVγ (CV, %): 0.09 (30.1)
[3]; [12]
  ALAG1 (delay in absorption): 0.20 h
  D1 (duration of zero-order absorption): 0.395 h
[3]; [13]
  IIV + IOVALAG1 (CV, %): 0.14 (38.8)
  IIV + IOVD1 (CV, %): 1.49 (185.4)
  IIVCLNR (CV, %): 0.046 (21.7)
  IIVCLR (CV, %): 0.052 (23.2)
  IIVKa (CV, %): 0.97 (128.0)
  IIVVc (CV, %): 0.09 (30.5)
  IIVVp (CV, %): 0.11 (33.8)
[3]; GCC4401C, Typical Vc=Vc(75)*(WT/75)^Θ
  Θ for WT and Vc (power covariate effect of body weight on Vc): 0.67
[3]; [14]
  Vc: 55.6 L
  Vp: 25.9 L
  average steady-state volume of distribution: 81.5 L
[3]; GCC-4401C oral, fasted, final model
  total clearance: 12.0 L/h
[3]; nonrenal clearance (CLNR)
  CL renal: 200 mL/min
[3]; renal clearance (CLR)
  CL renal: 13.7 mL/min
Factor Xa [4]; Simple Emax model
  Emax: 3.83
Factor Xa [4]; variance (CV %)
  IIVEC50 (CV, %): 0.29 (57.4)
Factor X
  EC50: 814 nM
Factor X; FXCAA, GCC4401C, S&MAD study, Sigmoid Emax model
  γ (shape parameter): 0.90
Factor X; [15]
  IIVEmax (CV, %): 0.01 (11.3)
  IIVγ (CV, %): 0.06 (25.7)
Factor X; Factor X chromogenic activity assay, GCC4401C, S&MAD study, Sigmoid Emax model
  Emax: 99.8%
Factor X; GCC-4401C 10 mg
  comparable dose of rivaroxaban in FXCAA: 30 to 40 mg
Factor X; GCC-4401C 20 mg
  comparable dose of rivaroxaban in FXCAA: ~80 mg
Antithrombin III
  SLOPE: 0.006

## O=C(NC[C@H]1CN(c2ccc(N3CCOCC3=O)cc2)C(=O)O1)c1ccc(Cl)s1 [rivaroxaban, reference compound]
Prothrombin time; [16]
  EC50: 0.434 µg/mL (≈ 0.996 µM)
  Emax: 0.71 INR
Prothrombin time; Prothrombin time (seconds), Rivaroxaban, S&MAD study, Simple Emax model
  Emax: 6.86 s
Factor Xa [1]; Antifactor Xa activity, Rivaroxaban, S&MAD study, Linear model
  SLOPE: 0.005
Factor Xa [1]; Antifactor Xa activity, Rivaroxaban, S&MAD study, variance (CV %)
  IIVSLOPE (CV, %): 0.01 (10.8)
[2]; [17]
  Emax: 12.4 s
  γ (shape parameter): 0.94
[2]
  EC50: 0.135 µg/mL (≈ 0.31 µM)
Coagulation factor X; [18]
  Emax: 42.9%
  γ (shape parameter): 0.90
Coagulation factor X; [19]
  IIVEC50 (CV, %): 0.33 (62.1)
  IOVEC50 (CV, %): 0.25 (52.9)
[3]; [20]
  D1 (duration of zero-order absorption): 1.07 h
  γ (shape parameter in Weibull-type absorption model): 1.34
[3]; [21]
  IIVCL (%): 0.015 (12.3)
  IIVKa (CV, %): 3.3 (503.1)
  IIVVc (CV, %): 0.01 (10.0)
  IIVVp (CV, %): 0.06 (25.7)
[5]; >10 mg, with food vs fasting
  increase of Cmax with food: 76%
  increase of mean area under concentration time curve with food: 39%
[5]; independent of food up to 10 mg
  bioavailability: 80–100%
Factor X; FXCAA, Rivaroxaban, S&MAD study, Simple Emax model
  Emax: 112.0%
Factor X; [22]
  IIVEC50 (CV, %): 0.07 (26.9)
  IOVEC50 (CV, %): 0.01 (8.2)
